Consider 6 compounds from patent US11566007B2, “Ras inhibitors” (Revolution Medicines, Inc., priority 2019, dated 2023).

For one assay, the target named is KRAS G12D (Homo sapiens (Human), UniProt P01116+P62937, G12D). Kind of assay: Ras-Raf (BRAF RBD) disruption / FRET / MOA assay, KRAS G12D. Type of assay: biochemical. The note with it: Ras-Raf disruption/FRET/MOA assay; class symbols; read-out: KRAS G12D FRET data IC50. In a few lines:
(§1)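 Compound-driven ternary complex of nucleotide-loaded Ras with cyclophilin A, disrupting BRAF RBD binding. 10-point 3-fold dilution from 30 μM final, 3 h at 25° C, then anti-His Eu-W1024 (10 nM) and anti-GST allophycocyanin (50 nM) for 1.5 h. IC50 from TR-FRET ratio decrease versus DMSO.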

Assay [1] has as its system NCI-H358 cells (K-Ras G12C). Kind of assay: Potency assay: pERK in NCI-H358 cells. The class given is cell-based, human. The note with it: Homo sapiens, NCI-H358; H358 KRAS G12C; read-out: pERK EC50. In a few lines:
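4 h cpd, 37 °C; 10-pt 3-fold series, 10 mM DMSO top stock, duplicates. Readout pERK: AlphaLISA SureFire Ultra or In-Cell Western (IR-800CW secondary, DRAQ5 DNA stain). IC50, 4-PL fit vs log conc.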

For a further assay, the target named is KRAS G12V (Homo sapiens (Human), UniProt P01116+P62937, G12V). The assay is described as follows: Ras-Raf (BRAF RBD) disruption / FRET / MOA assay, KRAS G12V. Type of assay: biochemical. The note with it: read-out: IC50* KRAS G12V FRET data. In a few lines:
as §1

For another assay, the target named is K-Ras G13C (Homo sapiens (Human), UniProt P01116+P62937, G13C). Kind of assay: Ras-Raf (BRAF RBD) disruption / FRET / MOA assay, KRAS G13C. Type of assay: biochemical. The following applies: KRAS G13C; Ras-Raf disruption/FRET/MOA assay; read-out: IC50* KRAS G13C FRET data. In a few lines:
as §1

For another assay, the target named is KRAS WT (Homo sapiens (Human), UniProt P01116+P62937). Kind of assay: Ras-Raf (BRAF RBD) disruption / FRET / MOA assay, KRAS WT. The class given is biochemical. The following applies: read-out: IC50* KRAS WT FRET data. The gist of the method: as §1
In a further assay the target is NRAS G12C (Homo sapiens (Human), UniProt P01111+P62937, G12C). The assay is described as follows: Ras-Raf (BRAF RBD) disruption / FRET / MOA assay, NRAS G12C. Type of assay: biochemical. The following applies: read-out: IC50* NRAS G12C FRET data. The gist of the method:
as §1

Another assay concerns NCI-H358 (K-Ras G12C). The assay is described as follows: CellTiter-Glo cell viability assay, NCI-H358. The note with it: Homo sapiens, NCI-H358, 120 h, NCI-H358, 5-day treatment; class symbols; read-out: Additional H358 Cell Viability assay data (K-Ras G12C, IC50). Type of assay: cell-based, human. The gist of the method: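 Viability measured by CellTiter-Glo luminescence on day 5 following direct addition of compound to plated cells. Values expressed as percent of mean DMSO signal; curves fitted with a four-parameter logistic model.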

Another assay deals with KRAS G12S (Homo sapiens (Human), UniProt P01116+P62937, G12S). Kind of assay: Ras-Raf (BRAF RBD) disruption / FRET / MOA assay, KRAS G12S. The note with it: Ras-Raf disruption/FRET/MOA assay; class symbols; read-out: KRAS G12S FRET data IC50. The class given is biochemical. In a few lines: as §1
The target in the next assay is K-Ras G12C (Homo sapiens (Human), UniProt P01116+P62937, G12C). The assay is described as follows: Ras-Raf (BRAF RBD) disruption / FRET / MOA assay, KRAS G12C. Type of assay: biochemical. The note with it: KRAS G12C; Ras-Raf disruption/FRET/MOA assay; read-out: IC50* KRAS G12C FRET data. The gist of the method: as §1
In another assay the target is KRAS G13D (Homo sapiens (Human), UniProt P01116+P62937, G13D). The assay is described as follows: Ras-Raf (BRAF RBD) disruption / FRET / MOA assay, KRAS G13D. The class given is biochemical. The following applies: read-out: IC50* KRAS G13D FRET data. The gist of the method: as §1

Several values for one entry are separate records, joined by “and”; a condition that tells them apart may be missing. Identical values can stand only once.

K-Ras G12C, sequence (P01116-2 other isoform, or with tags, fused parts or gaps G12C): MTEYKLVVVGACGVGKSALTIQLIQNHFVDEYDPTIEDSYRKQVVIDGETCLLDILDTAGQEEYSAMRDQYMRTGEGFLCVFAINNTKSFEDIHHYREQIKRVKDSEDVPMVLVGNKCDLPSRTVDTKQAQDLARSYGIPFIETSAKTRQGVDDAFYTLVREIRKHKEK
K-Ras G12C, sequence (P62937 whole entry): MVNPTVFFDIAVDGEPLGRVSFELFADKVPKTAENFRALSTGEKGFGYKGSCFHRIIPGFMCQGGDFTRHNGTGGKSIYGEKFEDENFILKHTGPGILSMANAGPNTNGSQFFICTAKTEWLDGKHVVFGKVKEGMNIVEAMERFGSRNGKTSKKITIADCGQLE
KRAS G12V, sequence (P01116-2 other isoform, or with tags, fused parts or gaps G12V): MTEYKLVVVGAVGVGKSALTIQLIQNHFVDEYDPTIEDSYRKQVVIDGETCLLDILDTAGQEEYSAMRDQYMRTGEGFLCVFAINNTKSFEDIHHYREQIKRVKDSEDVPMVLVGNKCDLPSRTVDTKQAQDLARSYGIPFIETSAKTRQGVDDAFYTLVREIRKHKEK
KRAS G12V, sequence (P62937 whole entry): as the sequence (P62937 whole entry) above
KRAS WT, sequence (P01116-2 other isoform, or with tags, fused parts or gaps): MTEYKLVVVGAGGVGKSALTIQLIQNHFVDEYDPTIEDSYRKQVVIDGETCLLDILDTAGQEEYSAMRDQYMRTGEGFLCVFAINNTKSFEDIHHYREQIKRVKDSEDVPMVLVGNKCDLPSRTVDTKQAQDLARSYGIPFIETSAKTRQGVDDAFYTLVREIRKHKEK
KRAS WT, sequence (P62937 whole entry): as the sequence (P62937 whole entry) above
KRAS G12S, sequence (P01116-2 other isoform, or with tags, fused parts or gaps G12S): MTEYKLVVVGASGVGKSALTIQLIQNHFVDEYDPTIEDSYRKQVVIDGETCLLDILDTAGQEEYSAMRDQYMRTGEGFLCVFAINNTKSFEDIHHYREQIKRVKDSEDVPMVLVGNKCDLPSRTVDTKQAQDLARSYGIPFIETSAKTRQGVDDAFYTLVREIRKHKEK
KRAS G12S, sequence (P62937 whole entry): as the sequence (P62937 whole entry) above
KRAS G13D, sequence (P01116-2 other isoform, or with tags, fused parts or gaps G13D): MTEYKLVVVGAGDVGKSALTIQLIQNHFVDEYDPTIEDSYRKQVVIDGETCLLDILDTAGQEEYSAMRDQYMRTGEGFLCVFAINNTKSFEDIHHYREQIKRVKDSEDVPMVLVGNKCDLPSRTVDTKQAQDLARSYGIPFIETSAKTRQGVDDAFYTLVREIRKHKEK
KRAS G13D, sequence (P62937 whole entry): as the sequence (P62937 whole entry) above
K-Ras G13C, sequence (P01116-2 other isoform, or with tags, fused parts or gaps G13C): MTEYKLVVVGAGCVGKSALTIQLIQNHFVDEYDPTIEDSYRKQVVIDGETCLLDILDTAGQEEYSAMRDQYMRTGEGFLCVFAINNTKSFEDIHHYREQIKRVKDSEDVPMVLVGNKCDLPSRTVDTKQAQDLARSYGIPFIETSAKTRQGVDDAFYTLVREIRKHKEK
K-Ras G13C, sequence (P62937 whole entry): as the sequence (P62937 whole entry) above
KRAS G12D, sequence (P01116-2 other isoform, or with tags, fused parts or gaps G12D): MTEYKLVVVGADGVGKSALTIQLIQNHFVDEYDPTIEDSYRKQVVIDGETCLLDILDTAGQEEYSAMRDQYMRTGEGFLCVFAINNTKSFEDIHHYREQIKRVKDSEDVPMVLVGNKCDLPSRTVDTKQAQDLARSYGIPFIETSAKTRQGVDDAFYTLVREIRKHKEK
KRAS G12D, sequence (P62937 whole entry): as the sequence (P62937 whole entry) above
NRAS G12C, sequence (P01111 whole entry G12C): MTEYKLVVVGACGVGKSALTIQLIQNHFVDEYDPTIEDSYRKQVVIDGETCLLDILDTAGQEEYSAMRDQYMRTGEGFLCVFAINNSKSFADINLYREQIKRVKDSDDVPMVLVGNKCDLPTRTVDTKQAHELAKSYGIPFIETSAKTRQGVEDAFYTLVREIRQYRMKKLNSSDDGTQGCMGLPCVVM
NRAS G12C, sequence (P62937 whole entry): as the sequence (P62937 whole entry) above

Take `C=CC(=O)N1CC(F)(C(=O)N(C)[C@H](C(=O)N[C@H]2Cc3cccc(c3)-c3ccc4c(c3)c(c(-c3cccnc3[C@H](C)OC)n4CC)CC(C)(C)COC(=O)[C@@H]3CCCN(N3)C2=O)C(C)C)C1` (atropisomer, axis not shown) [Example A517]: the IC50 at KRAS G12D was 1000 to 10000 nM; on KRAS G12V it was 100 to 1000 nM; on K-Ras G13C it was 10 to 100 nM; at KRAS WT, 100 to 1000 nM; at NRAS G12C it was 10 to 100 nM; in the assay on NCI-H358 (K-Ras G12C), < 10 nM. The figures for the IC50 at KRAS G12S, at K-Ras G12C and at KRAS G13D were 100 to 1000 nM, 10 to 100 nM and 1000 to 10000 nM, respectively. For the same compound, in assay [1], the EC50 is < 5000 nM.

Turning to `CCn1c(-c2cccnc2[C@H](C)OC)c2c3cc(ccc31)-c1cc(O)cc(c1)C[C@H](NC(=O)[C@H](C(C)C)N1CCC3(CN(C(=O)/C=C/CN(C)C)C3)C1=O)C(=O)N1CCC[C@H](N1)C(=O)OCC(C)(C)C2` (atropisomer, axis not shown) [Example A270], the half-inhibitory concentration (IC50) at KRAS G12D is 100 to 1000 nM; on KRAS G12V, 100 to 1000 nM; on K-Ras G13C, < 10 nM; at KRAS WT, 10 to 100 nM; on NRAS G12C, < 10 nM; with NCI-H358 (K-Ras G12C), 10 to 100 nM. For the same compound, the IC50 was 10 to 100 nM at KRAS G12S, < 10 nM on K-Ras G12C and 10 to 100 nM at KRAS G13D. The 50% effective concentration (EC50) in assay [1] is < 5000 nM.

As for `CCn1c(-c2cccnc2[C@H](C)OC)c2c3cc(ccc31)-c1cc(cc(C(F)F)c1)C[C@H](NC(=O)C(COC1CN(C(=O)C#CC(C)(C)N(C)C)C1)C(C)C)C(=O)N1CCC[C@H](N1)C(=O)OCC(C)(C)C2` (mixture of isomers) [Example A404], the IC50 on KRAS G12D is > 10000 nM; on KRAS G12V, > 10000 nM; on K-Ras G13C, > 10000 nM; on KRAS WT it was > 10000 nM; on NRAS G12C it was 100 to 1000 nM; in the assay with NCI-H358 (K-Ras G12C) it was 10 to 100 nM. For the same compound, the values for the IC50 at KRAS G12S, at K-Ras G12C and at KRAS G13D were > 10000 nM, 100 to 1000 nM and > 10000 nM, respectively. Moreover, the EC50 in assay [1] was < 5000 nM.

On to `C=CC(=O)N1CC[C@](F)(C(=O)N(C)[C@H](C(=O)N[C@H]2Cc3cccc(c3)-c3ccc4c(c3)c(c(-c3cccnc3[C@H](C)OC)n4CC)CC(C)(C)COC(=O)[C@@H]3CCCN(N3)C2=O)C(C)C)C1` (atropisomer, axis not shown) [Example A501], for which the IC50 at KRAS G12D lay within 1000 to 10000 nM; at KRAS G12V, 1000 to 10000 nM; on K-Ras G13C, 100 to 1000 nM; at KRAS WT it was 100 to 1000 nM; at NRAS G12C, 10 to 100 nM; in the assay with NCI-H358 (K-Ras G12C) it was 10 to 100 nM. In addition, the IC50 on KRAS G12S lay within 1000 to 10000 nM; at K-Ras G12C, 10 to 100 nM; at KRAS G13D, 1000 to 10000 nM. For the same compound, the EC50 in [1] is < 5000 nM.

As to `CCn1c(-c2cccnc2[C@H](C)OC)c2c3cc(ccc31)-c1nc(cs1)C[C@H](NC(=O)[C@H](C1CCCC1)N(C)C(=O)[C@H]1CCN(C(=O)C#CC(C)(C)N3CCC3)C1)C(=O)N1CCC[C@H](N1)C(=O)OCC(C)(C)C2` (atropisomer, axis not shown) [Example A439], the 50% inhibitory concentration (IC50) on KRAS G12D was > 10000 nM; at KRAS G12V, 1000 to 10000 nM; on K-Ras G13C it was 100 to 1000 nM; at KRAS WT, 1000 to 10000 nM; on NRAS G12C, 10 to 100 nM; in the assay on NCI-H358 (K-Ras G12C), < 10 nM. Further, the IC50 at KRAS G12S was in the range of 1000 to 10000 nM; at K-Ras G12C, 10 to 100 nM; at KRAS G13D it was 1000 to 10000 nM. Besides, the EC50 in assay [1] was < 5000 nM.

Regarding `C=CC(=O)Nc1ccc(C(=O)N(C)[C@H](C(=O)N[C@H]2Cc3cc(O)cc(c3)-c3ccc4c(c3)c(c(-c3cccnc3[C@H](C)OC)n4CC)CC(C)(C)COC(=O)[C@@H]3CCCN(N3)C2=O)C(C)C)cn1` (atropisomer, axis not shown) [Example A250], the IC50 at KRAS G12D is 1000 to 10000 nM and > 10000 nM; on KRAS G12V it was 100 to 1000 nM and > 10000 nM; at K-Ras G13C, 10 to 100 nM and < 10 nM; on KRAS WT, 100 to 1000 nM and 1000 to 10000 nM; on NRAS G12C it was 10 to 100 nM and < 10 nM; with NCI-H358 (K-Ras G12C) it was 10 to 100 nM. For the same compound, the IC50 on KRAS G12S is 100 to 1000 nM and 1000 to 10000 nM; at K-Ras G12C it was 10 to 100 nM; on KRAS G13D, 100 to 1000 nM and > 10000 nM. In addition, the EC50 in [1] was < 5000 nM.

By IC50 is commonly meant the concentration that gives 50% inhibition. The term EC50 denotes the concentration that produces a half-maximal response.
